For assay [1], the system named is S. tuberosum UGP (Nakano et al.). Particulars: cited from earlier work.
The subject of assay [2] is S. tuberosum UGP (Katsube et al.). Particulars: cited from earlier work.
For assay [3], the target named is T1, Eucalyptus grandis UGP (UDP-glucose pyrophosphorylase), SEQ ID NO: 79 (DNA; protein SEQ ID NO: 103) (Eucalyptus grandis, UniProt B3VDY8).
T1 construct: wild type
Briefly: UGP enzyme assay (purified recombinant protein). Particulars: E. grandis UGP. It is filed as biochemical. The text has this:
Sense constructs containing sequences including the coding regions for UGP (SEQ ID NO: 79) and SUS (SEQ ID NO: 105) from Eucalyptus grandis, and UGP (SEQ ID NO: 80) from Pinus radiata were inserted into the expression vector pET16b (Clontech Laboratories Inc, Palo Alto, Calif.). The resulting constructs were transformed into E. coli XL1-Blue (Stratagene) and induced to produce recombinant protein by the addition of IPTG. Purified proteins were obtained using Ni^2+ column chromatography (Janknecht et al., Proc. Natl. Acad. Sci. USA, 88:8972-8976, 1991).
Enzyme assays for UGP were performed using published methods (Peng and Chang, FEBS Lett. 329:153-158, 1993).

The subject of assay [4] is V. radiata SUS (sucrose synthase) (Delmer et al.). Particulars: SEM n.a.; cited from earlier work.

SMILES strings stand for the structures. Like-named read-outs stand apart in the source and are kept apart here.

T1 sequence (B3VDY8 entry or part of it): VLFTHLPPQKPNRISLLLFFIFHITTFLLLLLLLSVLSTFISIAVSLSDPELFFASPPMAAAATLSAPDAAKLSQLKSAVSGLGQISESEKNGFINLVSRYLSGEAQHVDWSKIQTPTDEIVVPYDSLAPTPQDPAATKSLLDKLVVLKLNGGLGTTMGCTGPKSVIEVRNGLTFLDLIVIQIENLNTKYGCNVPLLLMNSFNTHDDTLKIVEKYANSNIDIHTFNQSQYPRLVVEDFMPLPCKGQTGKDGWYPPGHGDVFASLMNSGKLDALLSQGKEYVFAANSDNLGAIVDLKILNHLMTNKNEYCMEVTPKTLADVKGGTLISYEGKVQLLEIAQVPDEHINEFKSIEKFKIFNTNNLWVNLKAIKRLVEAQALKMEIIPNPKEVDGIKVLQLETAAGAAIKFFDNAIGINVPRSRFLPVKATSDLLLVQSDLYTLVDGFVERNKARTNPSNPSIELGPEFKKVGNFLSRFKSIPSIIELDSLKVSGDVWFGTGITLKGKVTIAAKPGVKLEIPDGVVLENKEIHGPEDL

On to `O=P(O)(O)O[C@H]1O[C@H](CO)[C@@H](O)[C@H](O)[C@H]1O` [G1P], for which the Km in assay [1] (read-out: KM^G1P, SEM n.a.) was 180 µM; in assay [2] (read-out: KM^G1P, SEM n.a.), 130 µM.

On to `O=c1ccn([C@@H]2O[C@H](COP(=O)(O)OP(=O)(O)OP(=O)(O)O)[C@@H](O)[C@H]2O)c(=O)[nH]1` [UTP], for which the Km in assay [1] (read-out: KM^UTP, SEM n.a.) is 170 µM; in assay [2] (read-out: KM^UTP, SEM n.a.), 76 µM.

Consider `Nc1ncnc2c1ncn2[C@@H]1O[C@H](COP(=O)(O)OP(=O)(O)OP(=O)(O)O)[C@@H](O)[C@H]1O` [ATP], for which the “KM^ATP” value in assay [1], in assay [2] and in assay [3] was “no activity” each time.

For `OC[C@H]1O[C@@](CO)(O[C@H]2O[C@H](CO)[C@@H](O)[C@H](O)[C@H]2O)[C@@H](O)[C@@H]1O` [Sucrose], in assay [4], the Km was 16700 µM.

Source of the values: patent US20030229922A1, “Materials and methods for the modification of plant cell wall polysaccharides” (GENESIS RESEARCH AND DEVELOPMENT CORPORATION LTD., priority 1998, published 2003).
